Source: US6537972B1, “Compositions and methods for inhibiting human immunodeficiency virus infection by down-regulating human cellular genes” (Subsidiary No. 3., Inc., priority 1997, dated 2003)

Columns and labels:
[1] = tested on: human peripheral blood leukocytes (CD3+ T cells); experiment: Uninfected human PBLs under mofarotene (control samples, CD3-gated flow cytometry); type: cell-based; details: for % CD4+ in T cell population / % p24+ in CD4+ T population: HIV −, human PBLs; for % CD4+ in T cell population: CD3+ gated
Method: (§1) Human peripheral blood leukocytes (PBLs) were isolated using Ficoll-Hypaque density gradient separation. Cells were washed twice and resuspended in RPMI+10% FBS+2% human AB serum+penicillin/streptomycin/glutamine+100 Units/ml of IL-2 at a concentration of 0.5×10^6 cells/ml. PBLs were then activated with phytohemagglutinin at 0.5 μg/ml and placed in a humidified incubator at 37° C./[…]. After two days of activation, 10^6 cells were infected with HIV-1SF33 at TCID50 of 1000, in the presence of various concentrations of mofarotene: 0 μM, 1 μM, 0.5 μM, 0.1 μM, and 0.05 μM. A separate set of uninfected samples under identical concentrations of mofarotene were also maintained as controls. The samples were analyzed by flow cytometry at day 4 and day 6 post infection. The cells were gated for CD3 expression (for T cells). Then the expression of CD4 and viral p24 and CD4 was examined by bivariate dot plot.

OM10.1 cells = type: cell-based; details: human, 24 h, 100 nM
[2] = tested on: latent HIV provirus in OM10.1 cells; experiment: Inhibition of TNF-α induction of latent HIV provirus in OM10.1 cells (CD4 / p24 by flow cytometry); type: cell-based, HIV-1
Method: OM10.1 cells were cultured in RPMI 1640 glucose-free media prior to and during incubation with NADH dehydrogenase inhibitors and TNF-α induction. The inhibitors were added to the cells followed by TNF-α induction 1-2 hours later. The expression of CD4 by the cells was assessed by anti-CD4 antibody staining and flow cytometry after 24 hour incubation at 37° C.

HIV-1SF33 = experiment: Infection of freshly isolated human PBLs with HIV-1SF33 in the presence of mofarotene (CD3-gated flow cytometry); type: cell-based; details: for % CD4+ in T cell population / % p24+ in CD4+ T population: HIV +, HIV-1SF33 TCID50 1000
Method: as §1

[3] = mofarotene 0.05 μM, human PBLs, day 6
[4] = mofarotene 0.1 μM, human PBLs, day 6
[5] = mofarotene 0.5 μM, human PBLs, day 6
[6] = mofarotene 1.0 μM, human PBLs, day 6
[7] = mofarotene 1.0 μM, human PBLs, day 6, listed as mofarotene

C/C(=C\c1ccc(OCCN2CCOCC2)cc1)c1ccc2c(c1)C(C)(C)CCC2(C)C [Mofarotene]
% CD4+ in T cell population ([1]; mofarotene 0.05 μM, day 6): 33%
% p24+ in CD4+ T population ([1]; mofarotene 0.05 μM, day 6): 0%
% CD4+ in T cell population ([1]; mofarotene 0.1 μM, day 6): 34%
% p24+ in CD4+ T population ([1]; mofarotene 0.1 μM, day 6): 0%
% CD4+ in T cell population ([1]; mofarotene 0.5 μM, day 6): 34%
% p24+ in CD4+ T population ([1]; mofarotene 0.5 μM, day 6): 0%
% CD4+ in T cell population ([1]; mofarotene 1.0 μM, day 6): 36%
% p24+ in CD4+ T population ([1]; mofarotene 1.0 μM, day 6): 0%
percentage of CD4+ T cells, compound alone ([1]; day 4, uninfected samples): did not significantly alter
expression level of CD3 on the cell surface ([1]; day 6): did not alter
increase of the percentage of CD4+ T cells in uninfected samples, compound alone ([1]; day 6, effect called minimal): up to 4%
cells that remained viable (OM10.1 cells): greater than 80%
cells that retained CD4 expression ([2]; 100 nM, TNF-α-induced OM10.1 cells): 80%
induction of latent HIV provirus in OM10.1 cells (retention of CD4 expression) ([2]; TNF-α-induced OM10.1 cells, 24 hour incubation, FIG. 25, 26): inhibited HIV-1 induction at even lower concentrations
intracellular p24 levels in treated cells ([2]; compared with untreated controls): suppressed intracellular p24 levels
depletion of CD4+ T cells by HIV infection (HIV-1SF33; 1 μM, day 6, human PBLs): inhibited the depletion of CD4^+ T cells
% CD4+ in T cell population (HIV-1SF33; [3]): 18%
% p24+ in CD4+ T population (HIV-1SF33; [3]): 20.5%
% CD4+ in T cell population (HIV-1SF33; [4]): 28%
% p24+ in CD4+ T population (HIV-1SF33; [4]): 11.4%
% CD4+ in T cell population (HIV-1SF33; [5]): 24%
% p24+ in CD4+ T population (HIV-1SF33; [5]): 12.5%
% CD4+ in T cell population (HIV-1SF33; [6]): 25%
% p24+ in CD4+ T population (HIV-1SF33; [6]): 10%
% CD4+ in T cell population (HIV-1SF33; [7]): ~25%
% p24+ in CD4+ T population (HIV-1SF33; [7]): 10%
difference between HIV-infected PBLs with or without mofarotene (HIV-1SF33; day 4 post-infection): little detectable difference
